Each block holds one compound with its values, some of them ahead of it. Calls of active or inactive are those of the source.
What was measured:
[1] = target: Cytochrome P450 2D6 (Homo sapiens, UniProt P10635);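 further: CYP2D6 member of a cytochrome P450 panel assay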
[2] = target: T1, Tumor necrosis factor (Homo sapiens, UniProt P01375); experiment: TNFa-triggered NF-kB activation inhibitors, SAR follow-up, cell-based, set 3 (AID 2801); type: functional
[3] = target: T2, Nucleotide-binding oligomerization domain-containing protein 2 (Homo sapiens, UniProt Q9HC29); experiment: NOD2 signaling inhibitors, analog potency, SAR follow-up, cell-based, set 3 (AID 2799); type: functional
T2 sequence (Q9HC29 whole entry, the tested form may be a part): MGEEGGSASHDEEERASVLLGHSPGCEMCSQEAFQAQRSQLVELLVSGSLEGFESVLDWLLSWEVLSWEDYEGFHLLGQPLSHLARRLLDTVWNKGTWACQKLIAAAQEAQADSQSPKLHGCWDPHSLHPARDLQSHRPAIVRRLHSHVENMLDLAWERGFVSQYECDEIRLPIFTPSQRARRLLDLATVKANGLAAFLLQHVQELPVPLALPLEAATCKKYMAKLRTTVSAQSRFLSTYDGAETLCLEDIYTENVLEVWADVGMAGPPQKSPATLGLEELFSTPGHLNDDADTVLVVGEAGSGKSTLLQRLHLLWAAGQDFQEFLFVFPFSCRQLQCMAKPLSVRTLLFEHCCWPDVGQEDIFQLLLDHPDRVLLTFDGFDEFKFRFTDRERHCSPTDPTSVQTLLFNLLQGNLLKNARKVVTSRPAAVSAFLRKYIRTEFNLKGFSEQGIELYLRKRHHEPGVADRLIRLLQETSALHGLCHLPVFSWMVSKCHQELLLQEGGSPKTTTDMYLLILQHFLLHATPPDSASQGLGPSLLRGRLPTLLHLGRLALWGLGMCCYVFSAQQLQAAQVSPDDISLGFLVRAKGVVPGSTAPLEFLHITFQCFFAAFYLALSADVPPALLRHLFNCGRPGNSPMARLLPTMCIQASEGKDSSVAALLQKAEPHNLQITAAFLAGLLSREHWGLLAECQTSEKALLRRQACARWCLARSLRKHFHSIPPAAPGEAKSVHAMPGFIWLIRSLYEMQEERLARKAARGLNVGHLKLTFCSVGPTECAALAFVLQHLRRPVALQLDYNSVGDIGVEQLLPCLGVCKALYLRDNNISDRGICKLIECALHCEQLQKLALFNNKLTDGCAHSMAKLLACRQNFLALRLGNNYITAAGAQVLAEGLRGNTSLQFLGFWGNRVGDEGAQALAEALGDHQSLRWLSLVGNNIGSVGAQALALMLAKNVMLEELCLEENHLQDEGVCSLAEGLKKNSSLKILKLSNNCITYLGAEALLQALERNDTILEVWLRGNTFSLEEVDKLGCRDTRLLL

[4] = test system: HEK293; experiment: SAR analysis of compounds that are cytotoxic to HEK293 - Set 3. [Related pubchem assays (depositor defined):AID1575, AID1578, AID1848, AID1849, AID2001, AID2333, AID2334, AID2335, AID2337, AID2469]; type: functional, cell-based; conditions: Homo sapiens
[5] = test system: HEK293; experiment: SAR analysis of compounds that are cytotoxic to HEK293 - Set 2. [Related pubchem assays (depositor defined):AID1575, AID1578, AID1849, AID2001, AID2333, AID2334, AID2335, AID2337, AID2800]; type: functional, cell-based; conditions: Homo sapiens
[6] = target: T2, Nucleotide-binding oligomerization domain-containing protein 2; experiment: NOD2 inhibitors, SAR follow-up, set 2 (AID 2475); type: functional
[7] = target: T3, Nucleotide-binding oligomerization domain-containing protein 1 (Homo sapiens, UniProt Q9Y239); experiment: SAR analysis of compounds that inhibit NOD1 - Set 3. [Related pubchem assays (depositor defined):AID1566, AID1575, AID1578, AID1849, AID1852, AID2333, AID2335, AID2466]; type: functional
T3 sequence (Q9Y239 whole entry): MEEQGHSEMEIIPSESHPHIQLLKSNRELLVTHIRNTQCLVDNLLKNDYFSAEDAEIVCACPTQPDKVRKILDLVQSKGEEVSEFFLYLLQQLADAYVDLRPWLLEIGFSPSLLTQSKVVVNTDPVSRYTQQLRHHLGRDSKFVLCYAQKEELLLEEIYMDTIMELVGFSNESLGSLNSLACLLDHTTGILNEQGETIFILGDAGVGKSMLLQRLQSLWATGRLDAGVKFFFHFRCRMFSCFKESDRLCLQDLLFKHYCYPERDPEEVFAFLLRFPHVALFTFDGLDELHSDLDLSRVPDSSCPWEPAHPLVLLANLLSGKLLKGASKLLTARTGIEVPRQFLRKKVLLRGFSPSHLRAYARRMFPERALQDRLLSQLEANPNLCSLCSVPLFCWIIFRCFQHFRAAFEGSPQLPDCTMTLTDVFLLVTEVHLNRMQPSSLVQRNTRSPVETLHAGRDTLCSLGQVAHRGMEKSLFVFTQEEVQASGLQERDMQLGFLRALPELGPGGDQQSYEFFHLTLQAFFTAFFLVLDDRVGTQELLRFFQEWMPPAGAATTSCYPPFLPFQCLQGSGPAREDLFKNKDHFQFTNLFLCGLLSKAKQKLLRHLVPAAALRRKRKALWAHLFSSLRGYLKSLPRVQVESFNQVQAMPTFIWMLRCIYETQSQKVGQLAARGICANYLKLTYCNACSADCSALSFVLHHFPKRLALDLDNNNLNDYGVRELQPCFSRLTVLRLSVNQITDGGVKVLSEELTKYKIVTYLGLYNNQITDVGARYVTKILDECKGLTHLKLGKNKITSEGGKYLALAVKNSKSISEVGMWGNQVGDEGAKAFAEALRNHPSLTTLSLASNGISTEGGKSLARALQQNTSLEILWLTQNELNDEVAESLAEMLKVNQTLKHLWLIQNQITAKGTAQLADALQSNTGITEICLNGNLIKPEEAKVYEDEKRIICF

[8] = target: T3, Nucleotide-binding oligomerization domain-containing protein 1; experiment: SAR analysis of NF-kappaB dependent luciferase using DAP as an inducer - Set 2. [Related pubchem assays (depositor defined):AID1566, AID1575, AID1578, AID1579, AID1849, AID1852, AID2264]; type: functional
[9] = target: T4, Interleukin-8 (Homo sapiens, UniProt P10145); experiment: SAR analysis of Tumor necrosis factor alpha (TNF-alpha) induced IL-8 secretion in MCF-7/NOD1 cells - Set 2. [Related pubchem assays (depositor defined):AID1575, AID2250, AID2260]; type: functional, cell-based
T4 sequence (P10145 whole entry): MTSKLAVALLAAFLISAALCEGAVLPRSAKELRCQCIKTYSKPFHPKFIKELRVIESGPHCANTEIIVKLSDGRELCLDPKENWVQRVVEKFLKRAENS

[10] = target: T4, Interleukin-8; experiment: SAR analysis of GM-Tri-DAP induced IL-8 secretion in MCF-7/NOD1 cells - Set 2. [Related pubchem assays (depositor defined):AID1575, AID1578, AID2333]; type: functional, cell-based
[11] = target: Exodeoxyribonuclease V (Escherichia coli (strain K12), UniProt P04993+P07648+P08394); experiment: E. coli RecBCD inhibitors, dose response, counter-screen for AddAB inhibitor project, absorbance, V66 E. coli, mutant T4 phage (AID 492957); type: functional, cell-based, Escherichia coli str. K-12 substr. MG1655
[12] = cytotoxicity in HPDE-C7 cells, cell-based, fluorescence, HTS (AID 430); type: functional; conditions: Homo sapiens
[13] = test system: Streptococcus sp. 'group A'; experiment: growth inhibition of control SK(-) GAS strain, dose response, counter-screen for streptokinase expression inhibitor project, luminescence, kanamycin, BacTiterGlo, confirmation (AID 1900); type: functional, organism-based
[14] = test system: Streptococcus; experiment: Group A Streptococcus viability loss, dose response, counter-screen for streptokinase expression inhibitor project, luminescence, BacTiterGlo (AID 1915); type: functional, organism-based;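 further: potency for reduction of bacterial viability or growth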
[15] = cytotoxicity in KRAS-transformed pancreatic duct cells, primary screen, cell-based, fluorescence, HTS (AID 431); type: functional; conditions: Homo sapiens;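 further: cell line used: HPDE-C7K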
[16] = Counterscreen for AddAB inhibitors: absorbance-based bacterial cell-based high throughput dose response assay for inhibitors of bacterial viability. [Related pubchem assays (depositor defined):AID435030, AID449728, AID449731, AID488942, AID488955, AID488956]; type: functional
[17] = target: Sphingosine 1-phosphate receptor 1 (Homo sapiens, UniProt P21453); experiment: Late stage counterscreen assay for S1P4 antagonists: Fluorescence dose response cell-based screening assay for antagonists of the Sphingosine 1-Phosphate Receptor 1 (S1P1). [Related pubchem assays (depositor defined):AID1510, AID1524, AID1692, AID1853, AID2332, AID489009, AID489017]; type: functional
[18] = target: Sphingosine 1-phosphate receptor 5 (Homo sapiens, UniProt Q9H228); experiment: Late stage counterscreen assay for S1P4 antagonists: Fluorescence dose response cell-based screening assay for antagonists of the Sphingosine 1-Phosphate Receptor 5 (S1P5). [Related pubchem assays (depositor defined):AID1510, AID1524, AID1692, AID1853, AID2332, AID489009, AID489017]; type: functional
Chain of Sphingosine 1-phosphate receptor 5 (Q9H228 whole entry): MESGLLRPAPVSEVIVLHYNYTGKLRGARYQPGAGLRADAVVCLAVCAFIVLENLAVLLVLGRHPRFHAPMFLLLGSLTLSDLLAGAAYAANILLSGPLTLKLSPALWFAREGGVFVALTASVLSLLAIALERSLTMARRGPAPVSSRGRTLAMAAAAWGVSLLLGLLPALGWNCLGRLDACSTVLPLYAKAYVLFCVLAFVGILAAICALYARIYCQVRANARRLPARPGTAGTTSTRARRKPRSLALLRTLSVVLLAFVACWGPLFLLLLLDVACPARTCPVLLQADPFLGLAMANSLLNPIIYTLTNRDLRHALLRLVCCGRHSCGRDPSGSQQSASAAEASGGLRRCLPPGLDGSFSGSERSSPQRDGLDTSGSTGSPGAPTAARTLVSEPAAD

[19] = target: Sphingosine 1-phosphate receptor 2 (Homo sapiens, UniProt O95136); experiment: Late stage counterscreen assay for S1P4 antagonists: Fluorescence dose response cell-based screening assay for antagonists of the Sphingosine 1-Phosphate Receptor 2 (S1P2). [Related pubchem assays (depositor defined):AID1510, AID1524, AID1692, AID1853, AID2332, AID489009, AID489017]; type: functional
[20] = target: Sphingosine 1-phosphate receptor 3 (Homo sapiens, UniProt Q99500); experiment: Late stage counterscreen assay for S1P4 antagonists: Fluorescence dose response cell-based screening assay for antagonists of the Sphingosine 1-Phosphate Receptor 3 (S1P3). [Related pubchem assays (depositor defined):AID1510, AID1524, AID1692, AID1853, AID2332, AID489009, AID489017]; type: functional
Chain of Sphingosine 1-phosphate receptor 3 (Q99500 whole entry): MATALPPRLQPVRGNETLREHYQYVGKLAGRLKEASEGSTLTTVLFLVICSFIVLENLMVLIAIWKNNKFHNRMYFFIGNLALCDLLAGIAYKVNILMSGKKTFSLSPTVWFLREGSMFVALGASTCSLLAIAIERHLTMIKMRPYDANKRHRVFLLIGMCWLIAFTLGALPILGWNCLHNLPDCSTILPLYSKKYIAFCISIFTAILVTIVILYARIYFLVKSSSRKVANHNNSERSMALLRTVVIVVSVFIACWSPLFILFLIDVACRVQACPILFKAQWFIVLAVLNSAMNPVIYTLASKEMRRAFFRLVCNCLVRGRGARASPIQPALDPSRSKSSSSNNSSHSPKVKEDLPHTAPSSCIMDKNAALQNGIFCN

[21] = test system: HEK293; experiment: cells; conditions: Homo sapiens
[22] = target: T1, Tumor necrosis factor; experiment: TNFa-triggered NF-kB activation inhibitors, SAR follow-up, cell-based, revised (AID 2337); type: functional
[23] = target: T3, Nucleotide-binding oligomerization domain-containing protein 1; experiment: NOD1 signaling inhibitors, SAR follow-up, revised (AID 2333); type: functional
[24] = target: T2, Nucleotide-binding oligomerization domain-containing protein 2; experiment: PubChem AID 2334; type: functional
[25] = target: T5, Delta-type opioid receptor (Homo sapiens, UniProt P41143); experiment: DOR antagonists, SAR follow-up, image-based (AID 2357); type: functional
T5 sequence (P41143 whole entry): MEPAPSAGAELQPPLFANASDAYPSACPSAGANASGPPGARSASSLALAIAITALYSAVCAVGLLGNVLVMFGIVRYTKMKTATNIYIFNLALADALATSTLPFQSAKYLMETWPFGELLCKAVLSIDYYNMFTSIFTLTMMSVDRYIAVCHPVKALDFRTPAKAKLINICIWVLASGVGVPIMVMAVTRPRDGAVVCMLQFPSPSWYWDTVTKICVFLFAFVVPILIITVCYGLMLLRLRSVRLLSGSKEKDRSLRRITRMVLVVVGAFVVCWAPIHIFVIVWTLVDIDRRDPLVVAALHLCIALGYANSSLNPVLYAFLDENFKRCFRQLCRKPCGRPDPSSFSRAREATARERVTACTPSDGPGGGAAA

[26] = target: T6, Mu-type opioid receptor (Homo sapiens, UniProt P35372); experiment: MOR antagonists, SAR follow-up, image-based (AID 2420); type: functional;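 further: compounds added before stimulation of receptor with agonist DAMGO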
T6 sequence (P35372 whole entry): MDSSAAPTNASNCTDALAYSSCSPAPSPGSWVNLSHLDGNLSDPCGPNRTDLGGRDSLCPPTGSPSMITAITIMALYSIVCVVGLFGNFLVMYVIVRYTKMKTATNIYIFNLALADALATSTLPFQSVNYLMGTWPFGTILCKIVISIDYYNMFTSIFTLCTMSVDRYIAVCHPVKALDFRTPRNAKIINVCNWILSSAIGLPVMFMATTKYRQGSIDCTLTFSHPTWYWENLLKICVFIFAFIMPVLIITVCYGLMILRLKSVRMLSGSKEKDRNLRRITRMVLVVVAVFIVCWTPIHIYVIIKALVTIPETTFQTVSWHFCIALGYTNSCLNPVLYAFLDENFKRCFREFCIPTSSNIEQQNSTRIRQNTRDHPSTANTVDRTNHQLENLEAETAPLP

[27] = target: T7, Kappa-type opioid receptor (Homo sapiens, UniProt P41145); experiment: KOR antagonists by imaging, SAR follow-up, image-based (AID 2348); type: functional
T7 sequence (P41145 whole entry): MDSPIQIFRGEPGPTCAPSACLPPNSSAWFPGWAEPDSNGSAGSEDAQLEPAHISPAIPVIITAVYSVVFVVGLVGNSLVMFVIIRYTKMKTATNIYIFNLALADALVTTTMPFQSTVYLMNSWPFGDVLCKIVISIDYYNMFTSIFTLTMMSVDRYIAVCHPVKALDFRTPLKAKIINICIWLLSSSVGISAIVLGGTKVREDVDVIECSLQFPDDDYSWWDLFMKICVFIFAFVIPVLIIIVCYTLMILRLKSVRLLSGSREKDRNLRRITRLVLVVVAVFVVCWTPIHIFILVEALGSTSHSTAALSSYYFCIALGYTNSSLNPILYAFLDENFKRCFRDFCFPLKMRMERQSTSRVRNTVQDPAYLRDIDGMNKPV

[28] = target: T7, Kappa-type opioid receptor; experiment: kappa opioid receptor blockers, cell-based, luminescence, beta-arrestin, SAR follow-up (AID 2285); type: functional
[29] = target: T7, Kappa-type opioid receptor; experiment: KOR agonist analogs, imaging readout, SAR follow-up, image-based (AID 2359); type: functional
[30] = target: T5, Delta-type opioid receptor; experiment: DOR agonists, SAR follow-up, image-based (AID 2370); type: functional
[31] = target: T6, Mu-type opioid receptor; experiment: MOR agonists by imaging, SAR follow-up, image-based (AID 2352); type: functional
[32] = target: T8, Intestinal-type alkaline phosphatase (Homo sapiens, UniProt P09923); experiment: human intestinal alkaline phosphatase activators, dose response, biochemical, luminescence, uHTS hits (AID 463120); type: functional
T8 sequence (P09923 whole entry): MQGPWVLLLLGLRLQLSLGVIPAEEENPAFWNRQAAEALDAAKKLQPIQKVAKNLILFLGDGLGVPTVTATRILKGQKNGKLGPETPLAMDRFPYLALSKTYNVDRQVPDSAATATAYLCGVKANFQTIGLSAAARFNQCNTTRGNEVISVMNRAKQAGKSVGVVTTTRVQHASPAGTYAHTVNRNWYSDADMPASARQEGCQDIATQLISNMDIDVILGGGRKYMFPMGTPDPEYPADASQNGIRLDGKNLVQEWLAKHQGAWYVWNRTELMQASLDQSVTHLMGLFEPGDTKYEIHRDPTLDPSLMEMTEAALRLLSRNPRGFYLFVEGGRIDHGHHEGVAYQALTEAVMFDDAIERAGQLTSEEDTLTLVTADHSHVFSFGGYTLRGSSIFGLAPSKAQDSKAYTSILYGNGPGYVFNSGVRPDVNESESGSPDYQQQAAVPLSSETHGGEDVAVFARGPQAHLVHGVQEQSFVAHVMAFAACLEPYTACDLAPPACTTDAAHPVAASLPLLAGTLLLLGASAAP

[33] = Luminescence Cell-Based Dose Retest to Confirm Inhibitors of Cancer Stem Cells. [Related pubchem assays (depositor defined):AID2717, AID2721]; type: functional; conditions: Homo sapiens
[34] = target: T9, Alkaline phosphatase, tissue-nonspecific isozyme (Homo sapiens, UniProt P05186); experiment: TNAP enzyme activators, dose response, selectivity assay for human IAP activator project, biochemical, TNAP isozyme, human IAP uHTS hits (AID 488886); type: functional;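 further: potency of compounds raising TNAP activity as a selectivity check on IAP activators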
T9 sequence (P05186 whole entry): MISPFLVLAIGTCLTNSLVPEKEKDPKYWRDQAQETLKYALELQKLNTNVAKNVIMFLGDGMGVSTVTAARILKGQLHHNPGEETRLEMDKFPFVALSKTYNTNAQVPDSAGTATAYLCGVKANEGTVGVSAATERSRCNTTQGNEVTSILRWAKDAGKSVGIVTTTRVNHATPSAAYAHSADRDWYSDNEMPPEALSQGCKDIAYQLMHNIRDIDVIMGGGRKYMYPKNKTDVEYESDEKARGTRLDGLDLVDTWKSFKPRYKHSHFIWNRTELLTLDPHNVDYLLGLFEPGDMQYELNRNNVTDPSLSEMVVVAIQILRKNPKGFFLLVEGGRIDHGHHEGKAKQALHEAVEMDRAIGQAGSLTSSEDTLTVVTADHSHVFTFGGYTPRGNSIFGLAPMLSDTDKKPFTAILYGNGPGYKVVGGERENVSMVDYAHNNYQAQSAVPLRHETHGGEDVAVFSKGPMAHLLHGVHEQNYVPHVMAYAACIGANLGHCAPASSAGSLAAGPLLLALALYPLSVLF

[35] = target: T8, Intestinal-type alkaline phosphatase; experiment: human IAP activators, dose response, biochemical, luminescent, uHTS hits, set 2 (AID 488817); type: functional;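 further: potency of activators that raise enzyme activity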
[36] = target: Intestinal-type alkaline phosphatase (Mus musculus, UniProt P24822); experiment: PubChem AID 488875; type: functional
Chain of Intestinal-type alkaline phosphatase (Mus musculus, UniProt P24822) (P24822 whole entry): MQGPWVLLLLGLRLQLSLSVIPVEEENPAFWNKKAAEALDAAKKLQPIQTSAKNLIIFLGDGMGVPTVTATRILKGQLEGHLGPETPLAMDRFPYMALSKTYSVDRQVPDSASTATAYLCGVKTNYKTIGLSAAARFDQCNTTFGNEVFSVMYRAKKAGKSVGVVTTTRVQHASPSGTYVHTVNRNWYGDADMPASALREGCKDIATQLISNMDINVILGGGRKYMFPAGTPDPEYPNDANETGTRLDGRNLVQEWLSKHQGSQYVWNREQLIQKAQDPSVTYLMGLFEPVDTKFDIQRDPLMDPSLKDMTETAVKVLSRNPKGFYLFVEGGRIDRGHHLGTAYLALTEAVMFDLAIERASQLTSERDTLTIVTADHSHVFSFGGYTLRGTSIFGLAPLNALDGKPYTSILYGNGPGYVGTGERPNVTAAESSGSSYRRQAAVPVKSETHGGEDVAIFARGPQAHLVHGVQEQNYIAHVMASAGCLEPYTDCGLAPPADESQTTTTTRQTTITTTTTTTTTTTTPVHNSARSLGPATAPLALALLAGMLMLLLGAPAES

T1 sequence (P01375 whole entry, the tested form may be a part): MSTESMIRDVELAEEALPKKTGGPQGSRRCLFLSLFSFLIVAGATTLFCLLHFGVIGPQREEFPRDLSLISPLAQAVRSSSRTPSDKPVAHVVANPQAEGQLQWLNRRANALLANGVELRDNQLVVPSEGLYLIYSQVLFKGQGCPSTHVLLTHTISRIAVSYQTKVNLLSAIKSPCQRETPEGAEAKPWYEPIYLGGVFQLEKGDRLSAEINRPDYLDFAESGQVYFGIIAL
Chain of Cytochrome P450 2D6 (P10635 whole entry): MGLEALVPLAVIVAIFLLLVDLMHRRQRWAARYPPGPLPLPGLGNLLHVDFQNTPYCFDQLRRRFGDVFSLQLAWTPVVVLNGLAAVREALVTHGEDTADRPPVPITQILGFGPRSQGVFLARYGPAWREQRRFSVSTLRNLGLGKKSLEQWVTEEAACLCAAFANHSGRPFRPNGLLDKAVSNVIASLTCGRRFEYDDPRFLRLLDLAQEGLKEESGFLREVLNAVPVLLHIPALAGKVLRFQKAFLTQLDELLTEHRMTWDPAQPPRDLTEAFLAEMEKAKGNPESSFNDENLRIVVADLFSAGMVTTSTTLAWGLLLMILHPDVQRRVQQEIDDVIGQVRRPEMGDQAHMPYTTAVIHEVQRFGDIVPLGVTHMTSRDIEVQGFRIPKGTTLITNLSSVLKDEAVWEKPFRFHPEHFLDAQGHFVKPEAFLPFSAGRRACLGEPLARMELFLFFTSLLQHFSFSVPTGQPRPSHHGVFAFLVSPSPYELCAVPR

AC50 [1]: inconclusive
Structure (SMILES): Cc1cn([C@H]2C[C@H](O)[C@@H](COC(N)=O)O2)c(=O)[nH]c1=O

Structure (SMILES): C/C=C/Cn1c(SCc2ccccc2)nc2c1c(=O)[nH]c(=O)n2C
IC50 [2]: > 20 µM (inactive) | IC50 [3]: > 20 µM (inactive) | IC50 [4]: > 20 µM (inactive) | IC50 [5]: > 20 µM (inactive) | IC50 [6]: > 20 µM (inactive) | IC50 [7]: 18.6 µM (active) | IC50 [8]: > 25 µM (inactive) | IC50 [9]: > 25 µM (inactive) | IC50 [10]: > 25 µM (inactive)

Structure (SMILES): O=C(Nc1nnc(-c2ccccc2)o1)c1ccc(Cl)cc1
IC50 [11]: 44.2 µM (inactive) | EC50 [12]: 3.14 µM (active) | EC50 [13]: 0.26 µM (active) | EC50 [14]: 0.67 µM (active) | EC50 [15]: 3.15 µM (active) | IC50 [16]: 47 µM (inactive)

IC50 [17]: 9.31 µM (active) | IC50 [18]: 11.2 µM (inactive) | IC50 [19]: 4.77 µM (active) | IC50 [20]: 9.87 µM (active)
Structure (SMILES): COc1cccc(C)c1NC(=O)c1ccc(-c2cc(Cl)ccc2Cl)o1

Structure (SMILES): CC(=O)Nc1nc2ccccc2n1S(=O)(=O)c1ccc(C)cc1
IC50 [21]: > 20 µM (inactive) | IC50 [22]: > 20 µM (inactive) | IC50 [23]: 3.8 µM (active) | IC50 [24]: > 20 µM (inactive)

IC50 [25]: > 32 µM (inactive) | IC50 [26]: > 32 µM (inactive) | IC50 [27]: > 32 µM (inactive) | IC50 [28]: > 10 µM (inactive) | EC50 [29]: > 32 µM (inactive) | EC50 [30]: > 32 µM (inactive) | EC50 [31]: > 32 µM (inactive)
Structure (SMILES): O=C(NC(NC(=S)Nc1cccc(Br)c1)C(Cl)(Cl)Cl)OCc1ccccc1 (stereo unspecified)

Structure (SMILES): Cc1ccc(-c2cc(C(=O)N/N=C/c3ccccc3O)[nH]n2)o1
EC50 [32]: 5.71 µM (active) | AC50 [33]: 8.36 µM (active) | EC50 [34]: 3.89 µM (active) | EC50 [35]: 6.54 µM (active) | EC50 [36]: > 100 µM (inactive)

From ChEMBL document CHEMBL1201862, “PubChem BioAssay data set” (2004)
